Entries after “also recorded” stand apart in the source; their conditions may differ.
Legend:
[1] = tested on: calyx of Held presynaptic terminals; assay: EPSC recording at the calyx of Held, short-term depression and recovery; format: cell-based, rat
Text: (§1) Wistar rats (postnatal day 13-15) of either sex were killed by decapitation under isoflurane anesthesia. Transverse brainstem slices (175-200 μm in thickness) containing the medial nucleus of the trapezoid body (MNTB) were cut in ice-cold solution containing (in mM): 200 sucrose, 2.5 KCl, 26 NaHCO3, 1.25 NaH2PO4, 6 MgCl2, 10 glucose, 3 myo-inositol, 2 sodium pyruvate, and 0.5 sodium ascorbate (pH 7.4 when bubbled with 95% O2 and 5% CO2, 310-320 mOsm) by using vibroslicer (VT1200S, Leica). Before recording, slices were incubated for 1 h at 37° C. in standard aCSF solution containing (in mM): 125 NaCl, 2 KCl, 26 NaHCO3, 1.25 NaH2PO4, 2 CaCl2), 1 MgCl2, 10 glucose, 3 myo-inositol, 2 sodium pyruvate, and 0.5 sodium ascorbate (pH 7.4 when bubbled with 95% O2 and 5% CO2, 310-320 mOsm), and maintained thereafter at room temperature (24-26° C.). MNTB principal neurons and calyx of Held presynaptic terminals were visually identified using a ×40 water immersion objective attached to an upright microscope (BX51WI, Olympus).
For recording of evoked EPSCs, simultaneous pre- and postsynaptic whole-cell recordings were made from a calyceal nerve terminal and postsynaptic cell. Throughout the experiments, presynaptic recordings were made in current-clamp mode, whereas postsynaptic recordings were made in voltage-clamp mode at a holding potential of −70 mV. Pipette solution for recording of presynaptic action potentials (APs) contained (mM): 110 K-gluconate, 10 L-glutamate, 30 KCl, 10 HEPES, 0.5 EGTA, 12 Na2-phosphocreatine, 3 MgATP, 1 MgCl2, 0.3 Na2GTP (315 mOsm, pH 7.3 adjusted with KOH), and that for postsynaptic recording contained (mM): 110 CsF, 30 CsCl, 10 HEPES, 5 EGTA, 1 MgCl2, 5 QX314-CI (300 mOsm, pH 7.3 adjusted with CsOH). EPSCs were evoked by current injection (0.5-1 nA, 1 ms) into the presynaptic terminal via a recording glass electrode, in the presence of bicuculline methiodide (10 µM) and strychnine hydrochloride (0.5 μM).

[2] = tested on: calyx of Held presynaptic terminals; assay: Membrane capacitance measurement of exo-endocytosis at the calyx of Held; format: cell-based, rat; settings: LP-935509 1 or 10 µM in presynaptic terminals
Text: as §1
Membrane capacitance measurement from the calyx of Held presynaptic terminals, in whole-cell configurations, were made at room temperature (RT, 26-27° C.). Data were acquired at a sampling rate of 50 KHz, using an EPC-10 patch-clamp amplifier controlled by PatchMaster software (HEKA) after on-line filtering at 5 KHz. Calyx of Held terminals were voltage-clamped at a holding potential of −80 mV and a sinusoidal voltage command with a peak-to-peak voltage of 60 mV was applied at 1 KHz. Aak1 inhibitor LP935509 (Axon MedChem) was dissolved in DMSO (0.1%), which was also included in pipette solution, and infused from whole-cell pipettes into calyceal terminals by diffusion. […]
Single-pulse step depolarization to +10 mV for 20 ms was used to induce presynaptic QCa. […] The amplitude of exocytic Cm change (ΔCm) was measured as the difference of Cm values between the baseline and those at 450-500 ms after depolarization. […] The half decay time of endocytosis was measured from the midpoint of ΔCm decay.

[3] = tested on: calyx of Held; assay: Simultaneous pre- and postsynaptic action potential recordings, fidelity of neurotransmission; format: cell-based, rat; settings: p<0.01, n=6
Text: as §1
For recording postsynaptic action potentials (APs), simultaneous pre- and postsynaptic whole-cell recordings were made from calyceal terminals and postsynaptic MNTB principal neurons, both in current-clamp mode, in the presence of bicuculline methiodide (10 µM) and strychnine hydrochloride (0.5 μM). […]

[4] = tested on: human ipsc-derived neurons (iN); assay: Spontaneous synaptic currents in iPSC-derived neurons (iN); format: cell-based; settings: addition of CNQX
Text: FIG. 14A-14E. The differentiated neurons (iN) in culture are making functional synapses. • A) DIC image of human ipsc-derived neurons (iN) in culture of DIV25.

[5] = from cumulative histograms of EPSC amplitudes

Structure (SMILES)	recovery from STD (time constants of Ca2+-dependent fast and Ca2+-independent slow components) ([1]; calyx of Held)	short-term depression (STD) of EPSCs ([1]; calyx of Held loaded with LP-935509, 100 Hz train, 0.3 s, compared to controls, p<0.05, n=7)	pool size of readily releasable SVs [1, 5]	release probability [1, 5]	exocytosis (exocytic capacitance change, ΔCm) [2]	presynaptic Ca2+ current charge (QCa) [2]	endocytic capacitance change ([2]; p<0.05, n=6)	transmission fidelity (output/input AP ratio), level declined to ([3]; 1 μM in presynaptic terminals, 100-Hz stimulation, within 40 s)	fidelity of neurotransmission (ratio of postsynaptic APs to presynaptic APs) ([3]; 1 μM)	spontaneous synaptic currents in iN [4]
COc1ncccc1-c1cnn2ccc(N3CCN(C(=O)OC(C)C)CC3)nc12 [LP-935509]	significantly prolonged	stronger STD	reduced	without affecting	did not indicate a significant reduction; also recorded: remained unchanged	remained unchanged	significantly prolonged	~ 50%	significantly impaired	
N#Cc1cc2[nH]c(=O)c(=O)[nH]c2cc1[N+](=O)[O-] [CNQX]										abolished

— US20260250630A1, “PROTEOMICS-BASED RECEPTOR-LIGAND MATCHING FOR OPTIMIZING STEM CELL REPROGRAMMING” (OKINAWA INSTITUTE OF SCIENCE AND TECHNOLOGY SCHOOL …, priority 2021, published 2026)
